Read-outs that look alike come from different tables or passages of the source.
Legend:
[1] = target: T1, TNF-α (Homo sapiens, UniProt P01375); assay: Microscale thermophoresis (MST) binding affinity to Cy5-labelled recombinant TNF-α; conditions: for Kd: PBS pH 7.5, 25° C., mean of six independent test series
T1 construct: purchased Acrobiosystems, USA
Procedure: (§1) In addition to thermodynamic stability, the binding affinity of the biopharmaceuticals in compositions according to the present invention was determined and compared with the binding affinity in corresponding reference compositions.
(§2) Binding studies were performed using microscale thermophoresis (MST) with the Monolith NT.115 device (NanoTemper Technologies, Munich, Germany).
(§3) For the MST measurements, 10 microliters each of the biopharmaceutical at a concentration of […] were mixed with 10 microliters each of a serial dilution of methotrexate disodium in PBS buffer pH 7.5 to prepare the compositions according to the invention. The final concentration of MTX in all samples was 55 micromoles per liter, while the concentration of the respective ligand ranged from 1.5 micromoles per liter to 25 millimoles per liter.
(§4) Samples were loaded into coated capillaries (NanoTemper Technologies) according to the manufacturer's instructions and fluorescence was recorded for 20 seconds at 100% laser power and 40% MST power. The temperature of the instrument was set at 25° C. for all measurements. After the recordal of MST time traces, the data were analyzed. The equilibrium dissociation constant (KD) was determined based on the change in normalized fluorescence as a function of the concentration of the corresponding ligand after 14 seconds of thermophoresis using MO affinity analysis software (NanoTemper Technologies).
(§5) The values shown are the arithmetic mean values from six independent test series in each case.

[2] = Thermal unfolding profiles (Tycho NT.6 fluorimeter): temperature stability of the biologic with or without MTX; format: physicochemical
Excerpt: To prepare the compositions according to the invention, the biologics were combined with methotrexate disodium at concentrations of 25 milligrams per milliliter, 16.6 milligrams per milliliter, 10.0 milligrams per milliliter, 7.14 milligrams per milliliter, and 5.0 milligrams per milliliter, respectively. Phosphate buffered saline (PBS buffer) pH 7.5 was used as the solvent. As reference composition in each case served the biopharmaceutical in equivalent concentration in PBS buffer pH 7.5 without the addition of methotrexate disodium.
In each case, the above-noted concentrations were the final concentration of the biopharmaceutical or the methotrexate in the pharmaceutical composition.
After 20 days of incubation, the compositions were measured using a Tycho NT.6 fluorimeter (NanoTemper Technologies, Munich, Germany) according to the manufacturer's instructions to determine the thermal unfolding profiles of the biologics.
The inflection point of each curve indicates the denaturation temperature of the biopharmaceutical in the composition.

[3] = target: CD80; assay: Microscale thermophoresis (MST) binding affinity to Cy5-labelled recombinant CD80; conditions: for Kd: PBS pH 7.5, 25° C., mean of six independent test series
Chain of CD80 (P33681 35-288): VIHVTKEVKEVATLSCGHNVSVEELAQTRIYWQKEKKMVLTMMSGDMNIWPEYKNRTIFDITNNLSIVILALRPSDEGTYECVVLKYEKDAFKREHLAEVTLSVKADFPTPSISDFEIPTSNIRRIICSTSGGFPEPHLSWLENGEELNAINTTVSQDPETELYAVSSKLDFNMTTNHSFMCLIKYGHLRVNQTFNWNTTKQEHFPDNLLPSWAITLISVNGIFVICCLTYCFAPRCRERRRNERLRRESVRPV
Procedure: as §1, §2
Recombinant TNF-α, CD20, and CD80 (Acrobiosystems, USA) were labeled for MST measurements using the fluorescent dye Cy5 (Thermo Fisher Scientific, Germany) according to the manufacturer's instructions. The concentration of the recombinant proteins was measured after labeling using a UV-Vis spectrophotometer, and a labeling efficiency of 80 was determined.
as §3, §4, §5

[4] = target: T2, Recombinant CD20 (Acrobiosystems), Cy5-labelled (UniProt P11836 1-297, limits assumed, labelled with fluorescent dye Cy5 (site not stated)); assay: microscale thermophoresis, Cy5-labelled CD20, PBS pH 7.5, 25 °C, with methotrexate disodium; mean of six series
T2 construct: Bought recombinant protein; construct not described; also called B-lymphocyte antigen CD20
T2 sequence (looked up): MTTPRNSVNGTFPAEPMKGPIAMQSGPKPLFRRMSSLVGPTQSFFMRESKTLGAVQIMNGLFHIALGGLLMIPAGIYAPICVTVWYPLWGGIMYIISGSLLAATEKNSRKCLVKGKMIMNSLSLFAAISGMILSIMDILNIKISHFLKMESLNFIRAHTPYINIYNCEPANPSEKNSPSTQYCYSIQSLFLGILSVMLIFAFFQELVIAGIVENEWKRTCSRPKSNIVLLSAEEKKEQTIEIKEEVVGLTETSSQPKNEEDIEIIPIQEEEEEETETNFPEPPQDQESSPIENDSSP

[5] = target: T2, Recombinant CD20 (Acrobiosystems), …; assay: microscale thermophoresis; KD with MTX against the reference without MTX
[6] = target: T2, Recombinant CD20 (Acrobiosystems), …; assay: microscale thermophoresis, Cy5-labelled CD20, PBS pH 7.5, 25 °C, reference without MTX; mean of six series
[7] = MTX 55 micromoles per liter, read-out: KD with MTX
[8] = read-out: KD without MTX (reference)

T1 sequence (P01375 77-233 limits assumed): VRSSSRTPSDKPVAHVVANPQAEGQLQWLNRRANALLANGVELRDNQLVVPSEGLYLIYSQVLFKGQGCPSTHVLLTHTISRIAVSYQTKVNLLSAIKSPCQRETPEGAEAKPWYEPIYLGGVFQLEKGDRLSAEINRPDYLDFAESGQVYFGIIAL

With Etanercept as the molecule, how does the Kd [1, 7] read?
Its Kd is 0.005 nM.

What about the Kd [1, 8] of the same molecule?
Its Kd is 0.0116 nM.

And the “temperature stability in composition with MTX” value ([2]; MTX 5 milligrams per milliliter, PBS pH 7.5, 20 days of incubation)?
The value was 74.3 °C.

What about the “denaturation temperature / temperature stability in reference composition without MTX” value ([2]; PBS buffer pH 7.5, without MTX, after 20 days of incubation) of the same molecule?
Its value is 73.9 °C.

With Adalimumab as the molecule, how does the Kd [1, 7] read?
The Kd was 0.14 nM.

And the Kd [1, 8]?
The Kd was 0.147 nM.

What about the “binding affinity / binding strength in composition with MTX compared to control without MTX” value ([1]; in words, the b130 statement covers all tested ligands (TNF-α, CD20, CD80)) of the same molecule?
Its value is “higher binding affinity”.

What about the “Relative increase in binding strength” value ([1]; with MTX vs without MTX) of the same molecule?
Its value is 5%.

With “Rituximab: biologic that specifically binds B-lymphocyte antigen CD20 (trade names: MabThera, Rituxan)” as the molecule, how does the Kd [3, 7] read?
Its Kd is 6.8 nM.

What about the Kd [3, 8] of the same molecule?
The Kd was 11.3 nM.

What about the “Relative increase in binding strength” value ([3]; with MTX vs without MTX) of the same molecule?
Its value is 66%.

B1: Rituximab (MabThera) (antibody, V domains shown)
VH: QVQLQQPGAELVKPGASVKMSCKASGYTFTSYNMHWVKQTPGRGLEWIGAIYPGNGDTSYNQKFKGKATLTADKSSSTAYMQLSSLTSEDSAVYYCARSTYYGGDWYFNVWGAGTTVTVSA
VL: QIVLSQSPAILSASPGEKVTMTCRASSSVSYIHWFQQKPGSSPKPWIYATSNLASGVPVRFSGSGSGTSYSLTISRVEAEDAATYYCQQWTSNPPTFGGGTKLEIK
Which results are given for B1?
Kd [4]: 6.8 nM; Relative increase in binding strength [5]: 66%; Kd [6]: 11.3 nM
